Assay results reported in patent US20260242350A1, “POLYCYCLIC THYROID HORMONE BETA RECEPTOR AGONIST AND USE THEREOF” (CASCADE PHARMACEUTICALS, INC., priority 2023, published 2026).

Columns and labels:
THRβ (pGAL4-THRβ-LBD) = molecular target: T1, THRβ (pGAL4-THRβ-LBD) (Homo sapiens, UniProt P10828); experiment: Reporter gene (Dual-Glo luciferase) agonist activity assay in HEK293T cells, THRβ; assay type: cell-based; conditions: ratio of EC50 THRα/THRβ
T1 construct: expressed in transfected cells; host or cells: HEK293T
T1 sequence (P10828 217-461): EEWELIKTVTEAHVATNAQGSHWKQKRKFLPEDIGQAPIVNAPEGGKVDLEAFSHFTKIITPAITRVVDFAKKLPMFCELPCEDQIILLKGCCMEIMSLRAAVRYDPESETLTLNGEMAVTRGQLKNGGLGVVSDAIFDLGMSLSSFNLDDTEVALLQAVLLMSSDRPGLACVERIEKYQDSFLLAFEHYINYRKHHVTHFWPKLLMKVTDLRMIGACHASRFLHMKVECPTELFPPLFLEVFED
From the text: Experimental Example 2: Detection of Agonist Activities of Compounds Against THRα and THRβ Based on Reporter Gene Activity Assay Method
1.1 Construction and Preparation of Plasmids pGAL4-THR-LBD and pG5-Luc
The pGAL4-THRα-LBD and pGAL4-THRβ-LBD plasmids used in the reporter gene assay system were constructed by a conventional molecular cloning method comprising the following main steps: the cDNA sequences of THRα (NM_003250) and THRβ(NM_000461) corresponding to the amino acid sequences of THRα (163-407AA) and THRβ(217-461AA) were inserted into the BamHI and NotI enzyme digestion sites of the pGAL4 vector by the PCR technique respectively to obtain the pGAL4-THRα-LBD and pGAL4-THRβ-LBD plasmids; the pG5-Luc (#E249A) and pRL-TK (#E2241) plasmids were purchased from Promega; the plasmids were transfected into the E. coli DH5a by the CaCl2 method, and after further culture and amplification, the plasmids were purified by Plasmid Extraction Kits (TIANGEN, #D107) to obtain the corresponding plasmid DNAs.
1.2 Co-Transfection of Plasmids into HEK293T Cells and Treatment with Compounds
The HEK293T cells were inoculated into a 96-well plate at a density of 1×10^4/well the day before plasmid transfection. Cell transfection was conducted according to the instructions of the transfection reagent FuGENE® HD (Promega, #E2311). The main steps were as follows: taking one well as an example here, the plasmids pGAL4-THRα-LBD or pGAL4-THRβ-LBD, pG5-Luc, and pRL-TK were added in the proportions of 20 ng, 50 ng, and 5 ng to 10 μL of Opti-MEM™ I medium (Gibco, #11058021) and mixed well; subsequently, 0.25 μL of FuGENE® HD was added, mixed well, and then left at room temperature for 5 min; afterwards, […] was added to the cell wells containing 100 μL of culture medium. After cell co-transfection for 6 h, the compound was diluted in a 3-fold gradient with dimethyl sulfoxide at the highest concentration of 1 μM. The compound was added to the cell culture medium at a total of 10 concentrations for treatment for 24 h. There were a total of two duplicate wells for each concentration. Triiodothyronine (T3) was used as the positive control.
1.3 Dual-Glo Luciferase Assay
After the cells were treated with the compound for 24 h, the cells were assayed according to the instructions of Dual-Glo® Luciferase Assay System (Promega, #E2940). The main steps were as follows: 50 μL of culture medium was aspirated from each well and discarded, and then 50 μL of Dual-Glo® Luciferase reagent was added and oscillated at room temperature for 10 min; 80 μL of lysis reaction solution was measured into a white opaque optiPlate-96-well plate, and the luminescence signal value (Firefly-Luc) of the Firefly luciferase was detected using an MD i3x multi-mode microplate reader; 40 μL of Dual-Glo® Stop & Glo® reagent was then added, and oscillated at room temperature for 10 min; the luminescence signal value (Renilla-Luc) of the Renilla luciferase was then detected using an MD i3x multi-mode microplate reader. The Firefly-Luc/Renilla-Luc ratio was used as the activation activity of the compound against THR, and was normalized against the ratio in the vehicle DMSO group; the dose-response curve was fitted with four parameters using the GraphPad Prism6.0 software, and the EC50 value was calculated.

[1] = molecular target: T2, THRβ LBD (His-GST-dLBT-THRβLBD) (Homo sapiens, UniProt P10828); experiment: THR-FRET (time-resolved fluorescence resonance energy transfer) agonist activity assay, THRβ; assay type: biochemical; conditions: for EC50: 24 h at room temperature; for Selectivity (THRα/THRβ): ratio of EC50 THRα/THRβ
T2 construct: made in house; host or cells: E. coli BL21 (DE3)
T2 sequence (P10828 217-461 limits assumed): T1 sequence (P10828 217-461)
From the text: (§1) Experimental Example 1: Detection of Agonist Activities of Compounds Against THRα/β Based on Time-Resolved Fluorescence Resonance Energy Transfer (THR-FRET)
(§2) 1. Construction of THRα/β Overexpression Vectors
(§3) By visiting NCBI, the THRα/β LBD domain sequences were found. The pET21-His-GST-dLBT-THRα LBD and pET21-His-GST-dLBT-THRβLBD overexpression vectors were constructed by the fusion method, and sequenced to confirm the accuracy of the sequences.
(§4) 2. Prokaryotic Expression of Recombinant Proteins in E. coli
(§5) The THRα LBD and THRβLBD overexpression vectors confirmed by sequencing were transfected into E. coli cells BL21 (DE3), and spread on an ampicillin-resistant agar plate. Monoclones were picked out and amplified in an LB medium, and transferred into 1 L LB at a ratio of 1:100 for large-scale culture. When the OD value was at 0.8 to 1.2, 0.5 mM isopropyl-beta-D-thiogalactopyranoside (IPTG) was added, and induced overnight at 18° C. The bacteria were harvested, disrupted, and purified via the GST column and the molecular sieve to obtain two proteins His-GST-dLBT-THRα LBD and His-GST-dLBT-THRβLBD.
(§6) 3. Preparation of Compounds and Formulation of Reaction System
(§7) The proteins were taken out from a refrigerator at −80° C. The protein s with the GST-tagged THRα/p LBD domain and the Eu-labelled GST antibodies were thawed slowly on ice, and an assay buffer containing a final concentration of 5 mM dithiothreitol (DTT) was formulated.
(§8) 3.1 Preparation of Compounds
(§9) The starting concentration of the compound was 10 μM (in DMSO). The compound (100 μM in DMSO) was subjected to 3-fold isogradient dilution with DMSO to obtain a total of 11 isogradient concentrations. Subsequently, the above compounds at the isogradient concentration were further subjected to 50-fold dilution with an assay buffer containing 5 mM DTT.
(§10) 3.2 Formulation of THR-FRET Reaction System
(§11) The final concentrations of all components were calculated based on a system with a final volume of 20 µL per well. To […] of assay buffer containing 5 mM DTT, the GST-tagged THRα/β proteins, the SRC2 ([…]) polypeptide, XL665 (Cisobio, #610SAXLB), and the Eu-labeled GST antibody were added, and the final concentrations were 2 nM, 200 nM, 0.05 nM, and 7.6 nM respectively to formulate 18 μL of reaction mixture of the proteins, polypeptide, and antibody per well.
(§12) 18 μL of reaction mixture and 2 μL of diluted compound were added into an optiplate-384-well plate, and reacted at room temperature for 24 h.
(§13) The plate was read using an MD i3x multi-mode microplate reader with the excitation and emission wavelengths of 340 nm and 665 nm, respectively. The intensity of light at a wavelength of 616 nm generated by europium excited by 340 nm wavelength light from the MD i3x multi-mode microplate reader was used as the background. According to the different activation degrees of different compounds against THRα and THRβ, the intensity of the emission light at a wavelength of 665 nm generated by exciting XL665 with the exciting light at a wavelength of 616 nm was varied. The intensity ratio between these two light wavelengths (665 nm, 616 nm) was used as the activation activity of the compound against THRα or THRβ, and was normalized against the ratio in the vehicle DMSO group. The dose-response curve was fitted with four parameters using the GraphPad Prism 6.0 software, and the EC50 value was calculated.

[2] = molecular target: T3, THRα LBD (His-GST-dLBT-THRα LBD) (Homo sapiens, UniProt P10827); experiment: THR-FRET (time-resolved fluorescence resonance energy transfer) agonist activity assay, THRα; assay type: biochemical; conditions: 24 h at room temperature
T3 construct: made in house; host or cells: E. coli BL21 (DE3)
T3 sequence (P10827 163-407 isoform P10827-2): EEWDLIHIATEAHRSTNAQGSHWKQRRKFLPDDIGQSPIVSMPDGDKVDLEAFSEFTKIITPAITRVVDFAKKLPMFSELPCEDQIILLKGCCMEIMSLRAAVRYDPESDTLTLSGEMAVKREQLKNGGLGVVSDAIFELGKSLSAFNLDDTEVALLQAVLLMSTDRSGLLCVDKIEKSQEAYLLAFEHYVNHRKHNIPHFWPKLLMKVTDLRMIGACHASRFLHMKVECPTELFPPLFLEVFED
From the text: as §1, §2, §3, §4, §5, §6, §7, §8, §9, §10, §11, §12, §13

SMILES | Selectivity (THRα/THRβ) (THRβ (pGAL4-THRβ-LBD)) | EC50 [1] [nM] | Selectivity (THRα/THRβ) [1] | EC50 [2] [nM]
O=c1cnn(-c2cc(Cl)c(Cn3ccc(=O)c4ccccc43)c(Cl)c2)c(=O)[nH]1 [Compound 1] | † (5 ≥ THRα/β) | 100 to 1000 | †† (10 > THRα/β > 1) | 1000 to 10000
O=c1cnn(-c2cc(Br)c(Cn3ccc(=O)c4ccccc43)c(Br)c2)c(=O)[nH]1 [Compound 2] | † (5 ≥ THRα/β) | < 50 | †† (10 > THRα/β > 1) | 100 to 1000
O=c1cnn(-c2cc(Cl)c(Cn3ccc(=O)c4ccccc43)c(Br)c2)c(=O)[nH]1 [Compound 3] | † (5 ≥ THRα/β) | 100 to 1000 | †† (10 > THRα/β > 1) | 100 to 1000
O=c1cnn(-c2cc(Cl)c(Cn3ccc(=O)c4cc(F)ccc43)c(Cl)c2)c(=O)[nH]1 [Compound 5] | † (5 ≥ THRα/β) |  |  | 
O=c1cnn(-c2cc(Cl)c(Cn3ccc(=O)c4cc(Cl)ccc43)c(Cl)c2)c(=O)[nH]1 [Compound 6] | † (5 ≥ THRα/β) |  |  | 
O=c1cnn(-c2cc(Cl)c(Cn3ccc(=O)c4cc(Br)ccc43)c(Cl)c2)c(=O)[nH]1 [Compound 7] | † (5 ≥ THRα/β) |  |  | 
O=c1cnn(-c2cc(Cl)c(Cn3ccc(=O)c4cc(OC(F)(F)F)ccc43)c(Cl)c2)c(=O)[nH]1 [Compound 8] | † (5 ≥ THRα/β) |  |  | 
O=c1cnn(-c2cc(Cl)c(Cn3ccc(=O)c4ccc(Cl)cc43)c(Cl)c2)c(=O)[nH]1 [Compound 12] | † (5 ≥ THRα/β) |  |  | 
O=c1cnn(-c2cc(Cl)c(Cn3ccc(=O)c4c(Cl)cccc43)c(Cl)c2)c(=O)[nH]1 [Compound 13] | † (5 ≥ THRα/β) | 100 to 1000 | †† (10 > THRα/β > 1) | 1000 to 10000
CCOC(=O)c1cn(Cc2c(Cl)cc(-n3ncc(=O)[nH]c3=O)cc2Cl)c2ccccc2c1=O [Compound 21] | † (5 ≥ THRα/β) |  |  | 
COC(=O)c1cc2c(=O)ccn(Cc3c(Cl)cc(-n4ncc(=O)[nH]c4=O)cc3Cl)c2cc1OC [Compound 27] | † (5 ≥ THRα/β) |  |  | 
